In patent US20130157973A1, “PHARMACEUTICAL COMPOSITIONS AND METHODS FOR TREATING GASTROINTESTINAL INFECTIONS AND DISORDERS” (priority 2011, published 2013):
Read-outs that look alike come from different tables or passages of the source.

Experiments:
[1] = Phase IIa studies in chronic HCV subjects: safety, neutrophil and lymphocyte counts, liver enzymes; format: in vivo, human; settings: for proportion of subjects with AST elevations / proportion of subjects with ALT elevations: French study, 0.02 mg/kg group
Experimental: Single center study (France): 6 subjects received 0.01 mg/kg, 11 received 0.02 mg/kg and 6 received placebo.
Exclusion criteria included clinically meaningful cirrhosis on prior liver biopsy (U.S. study), positive serology for possible autoimmune hepatitis (ANA˜1:640, ASMA>1:320, ALKM antibody>1:320), hepatocellular neoplasia, anemia (<12 g/dL for men, <11 for women), thrombocytopenia (<90,000/μL), leukopenia (<2500 cells/μL), neutropenia (<1500 cells/μL, U.S. study), ALT>1000 U/L (French study) or aspartate aminotransferase (AST) or ALT>500 U/L (U.S. study), bilirubin>1 mg/dL, decompensated liver disease, other liver diseases, positive serology for HIV, positive HBsAg, prior organ transplantation, significant psychiatric disease, alcohol or drug abuse within 12 months, systemic immunomodulatory or investigational therapy within 3 months, and significant cardiac, pulmonary, systemic inflammatory or thyroid disease.
In the U.S. study, subjects were assigned centrally across centers. Active to placebo assignment was 3:1 for each cohort. Sample sizes were not prospectively powered.
All subjects were to receive study drug two times per week for 4 weeks. Subjects self-administered study drug at home except on study visits with pharmacokinetic and pharmacodynamic sampling where it was administered in the clinic. […] In the U.S. study, subjects received 0.01 mg/kg of resiquimod.
(§1) Serum IL-6, IL-1RA, TNF-α and IFN-γ were measured by enzyme-linked immunosorbent assay (Immunotech, Cedex, France) and neopterin by immunoenzymatic assay (Immunotech, Cedex, France). Serum type I IFN levels were determined by bioassay. Serum 2′,5′ oligoadenylate synthetase (2′5′ AS) was measured by radioimmunoassay (Eiken Chemical Co. Ltd., Tokyo, Japan). Serum IL-12 p40 was measured by enzyme-linked immunosorbent assay (R&D Systems, Minneapolis, Minn.) Immunophenotyping of T lymphocytes in the U.S. study was performed at NGI.

[2] = Single-dose pharmacokinetics of Compound B, fasted and fed cohorts; format: in vivo, human; settings: for Cmax / AUC(0-inf) / half-life / Tmax: human, plasma, oral; for Cmax: read-out: Cmax Mean (% CV); for AUC(0-inf): read-out: AUCinf Mean (% CV); for Tmax: read-out: Tmax Median (Q1, Q3)
Experimental: Table 1 and Table 2 present the PK parameters of Compound B following the administration of a single dose of Compound B in the fasted cohorts and fed cohorts, respectively. Mean maximal plasma concentration values (Cmax) were higher with increasing dose in the fasted treatment groups. Mean maximal plasma concentration values were lower when Compound B (8 mg) was administered with moderate- or high-fat meal or following a high fat-meal than when Compound B was administered under fasting conditions.

serum HCV RNA = test: Phase IIa studies: serum HCV RNA by quantitative polymerase chain reaction; format: in vivo, hepatitis C virus
Experimental: Two randomized, double-blind phase IIa studies of Compound B administered two times per week for 4 weeks. Multicenter study (U.S.): 12 subjects received Compound B 0.01 mg/kg and 4 received placebo. Single center study (France): 6 subjects received 0.01 mg/kg, 11 received 0.02 mg/kg and 6 received placebo.
Serum HCV RNA was measured by quantitative polymerase chain reaction (NGI). Subjects were categorized as responders (reduction from baseline of ˜2 logs) or non-responders at the end-of-treatment visit (day 29), and at the last follow-up visit (day 113 U.S. study, and day 57 French study).

IFN-α = test: Phase IIa studies: serum type I IFN levels by bioassay; format: in vivo, human
Experimental: as §1, with “Samples for cytokines were obtained at 0, 2, 4, 6, 8, 12 and 24 h after the first dose, prior to dosing at days 8, 15, 22 or 25 (see above regarding pharmacokinetics) and day 29. Serum IL-6,” for “Serum IL-6,”

[3] = Placebo-controlled single and multiple administration tolerability studies in healthy adults; format: in vivo; settings: single administration study in 48 healthy adults, up to 0.05 mg/kg
[4] = 0.3 mg, single dose 0.3 mg, Cohort 1, fasted
[5] = 1 mg, single dose 1 mg, Cohort 2, fasted
[6] = 2 mg, single dose 2 mg, Cohort 3, fasted
[7] = 4 mg, single dose 4 mg, Cohort 4, fasted
[8] = 6 mg, single dose 6 mg, Cohort 5, fasted
[9] = 8 mg, single dose 8 mg post high-fat meal (4 hours), Cohort 9
[10] = 8 mg, single dose 8 mg with a high-fat meal, IFE Cohort
[11] = 8 mg, single dose 8 mg with a moderate-fat meal, Cohort 8
[12] = 8 mg, single dose 8 mg, Cohort 6, fasted
[13] = 12 mg, single dose 12 mg, Cohort 7, fasted
[14] = of the 11 subjects with at least a 1-log reduction at any time

SMILES: CCCCOc1nc(N)c2c(n1)N(Cc1cccc(CN3CCCC3)c1)CC(=O)N2 [Compound B, 4-amino-2-butoxy-8-(3-(pyrrolidin-1-ylmethyl)benzyl)-7,8-dihydropteridin-6(5H)-one]
- proportion of subjects with AST elevations ([1]; day 1 (6/11)): 55%
- proportion of subjects with ALT elevations ([1]; day 1 (9/11)): 82%
- proportion of subjects with AST elevations ([1]; day 29 (1/9)): 11%
- proportion of subjects with ALT elevations ([1]; day 29 (5/9)): 56%
- ALT and AST levels ([1]; U.S. study, 0.01 mg/kg): Neither ALT nor AST levels appeared to be affected
- changes in physical examinations ([1]; both studies): no clinically meaningful changes
- Clinically relevant changes in CD4+ lymphocyte counts or CD4+/CD8+ lymphocyte ratios ([1]; human, in vivo): not observed
- adverse effects ([1]; oral 0.02 mg/kg): adverse effects similar to interferon-alpha
- Mean maximal plasma concentration fed vs fasting ([2]; 8 mg with moderate- or high-fat meal or following a high-fat meal, vs fasting conditions): lower
- Cmax [2, 4]: 0.184 ng/mL
- AUC(0-inf) ([2]; 0.3 mg, single dose 0.3 mg, Cohort 1, fasted, limited terminal phase data, interpret with caution): 2.97 ng·h/mL
- half-life ([2]; 0.3 mg, single dose 0.3 mg, Cohort 1, fasted, plasma measured only to 24 hours, interpret with caution, read-out: T½ Median (Q1, Q3) (converted)): 10.4 h
- Tmax [2, 4]: 3 h
- Cmax [2, 5]: 0.44 ng/mL
- AUC(0-inf) [2, 5]: 9.23 ng·h/mL
- Tmax [2, 5]: 3 h
- half-life ([2]; 1 mg, single dose 1 mg, Cohort 2, fasted, read-out: T½ Median (Q1, Q3) (converted)): 26.9 h
- Cmax [2, 6]: 0.633 ng/mL
- AUC(0-inf) [2, 6]: 11.3 ng·h/mL
- Tmax [2, 6]: 6 h
- half-life ([2]; 2 mg, single dose 2 mg, Cohort 3, fasted, read-out: T½ Median (Q1, Q3) (converted)): 24.3 h
- Cmax [2, 7]: 2.93 ng/mL
- AUC(0-inf) [2, 7]: 57.2 ng·h/mL
- Tmax [2, 7]: 4 h
- half-life ([2]; 4 mg, single dose 4 mg, Cohort 4, fasted, read-out: T½ Median (Q1, Q3) (converted)): 17.2 h
- Cmax [2, 8]: 7.26 ng/mL
- AUC(0-inf) [2, 8]: 76.9 ng·h/mL
- Tmax [2, 8]: 2.5 h
- half-life ([2]; 6 mg, single dose 6 mg, Cohort 5, fasted, read-out: T½ Median (Q1, Q3) (converted)): 14.7 h
- AUC(0-inf) [2, 9]: 79.5 ng·h/mL
- Cmax [2, 9]: 4.53 ng/mL
- Tmax [2, 9]: 5 h
- half-life ([2]; 8 mg, single dose 8 mg post high-fat meal (4 hours), Cohort 9, read-out: T½ Median (Q1, Q3) (converted)): 20.5 h
- AUC(0-inf) [2, 10]: 71.4 ng·h/mL
- Cmax [2, 10]: 5.24 ng/mL
- Tmax [2, 10]: 3 h
- half-life ([2]; 8 mg, single dose 8 mg with a high-fat meal, IFE Cohort, read-out: T½ Median (Q1, Q3) (converted)): 23.6 h
- AUC(0-inf) [2, 11]: 51.1 ng·h/mL
- Cmax [2, 11]: 2.04 ng/mL
- Tmax [2, 11]: 2 h
- half-life ([2]; 8 mg, single dose 8 mg with a moderate-fat meal, Cohort 8, read-out: T½ Median (Q1, Q3) (converted)): 21.6 h
- Cmax [2, 12]: 8.34 ng/mL
- AUC(0-inf) [2, 12]: 109 ng·h/mL
- Tmax [2, 12]: 2.51 h
- half-life ([2]; 8 mg, single dose 8 mg, Cohort 6, fasted, read-out: T½ Median (Q1, Q3) (converted)): 19.5 h
- Cmax [2, 13]: 12 ng/mL
- AUC(0-inf) [2, 13]: 140 ng·h/mL
- Tmax [2, 13]: 1.51 h
- half-life ([2]; 12 mg, single dose 12 mg, Cohort 7, fasted, read-out: T½ Median (Q1, Q3) (converted)): 16.3 h
- half-life ([2]; all groups except the 0.3-mg group, read-out: Median terminal half-life values across groups): 14.7 to 26.9 h
- subjects with at least a 1-log reduction in HCV levels at any time during the study (serum HCV RNA; 0.01 mg/kg group): five
- subjects with at least a 1-log reduction in HCV levels at any time during the study (serum HCV RNA; 0.02 mg/kg group): six
- subjects with maximal reduction in viral levels of at least 1-log (serum HCV RNA; 0.02 mg/kg group): Two
- subjects with maximal reduction in viral levels of at least 2-logs (serum HCV RNA; 0.02 mg/kg group): three
- subjects with maximal reduction in viral levels of at least 3-logs (serum HCV RNA; 0.02 mg/kg group): one
- responders per protocol (2 log reduction) at end-of-treatment visit (serum HCV RNA; 0.02 mg/kg, day 29, not sustained on follow-up): one
- subjects whose HCV Rmax occurred at day 29 or after (serum HCV RNA; [14]): 5 subjects
- subjects whose HCV Rmax occurred within 48 h after dose 1 (serum HCV RNA; [14]): 6 subjects
- effect on viral levels (serum HCV RNA; oral 0.02 mg/kg): transiently reduced viral levels
- serum HCV RNA levels after the first dose (serum HCV RNA; peaking at about 24 h, trending toward baseline by 48 h): dose-dependent decrease
- IFN-α Rmax post-dose 1 of individual subject (IFN-α; 0.02 mg/kg subject who discontinued treatment for severe grade flu-like symptoms): 3946 IU/mL
- IFN-α Rmax post-dose 1 of individual subject (IFN-α; 0.02 mg/kg subject who discontinued treatment for severe grade lymphopenia): 15,557 IU/mL
- maximum tolerated oral dose [3]: 0.03 mg/kg
